Results from PubChem BioAssay (NCI).
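96-well plates; 48 h exposure; 5 concentrations. Endpoints by linear interpolation between flanking doses. Not reached: highest tested concentration assigned. GI50 is the concentration that inhibits growth by half. TGI marks complete inhibition of growth.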

How the values were obtained:
Assay in all cases: DTP human tumour cell line panel, 48 h
[1] = tested on: SK-MEL-5 melanoma
[2] = tested on: SK-MEL-2 melanoma
[3] = tested on: T-47D breast
[4] = tested on: RXF 393 renal
[5] = tested on: BT-549 breast
[6] = tested on: CAKI-1 renal
[7] = tested on: MDA-MB-435
[8] = tested on: SF-539 CNS
[9] = tested on: NCI-H23 lung
[10] = tested on: SW-620 colon
[11] = tested on: SK-OV-3 ovarian
[12] = tested on: ACHN renal
[13] = tested on: UO-31 renal
[14] = tested on: A498 renal
[15] = tested on: CCRF-CEM leukemia
[16] = tested on: DU-145 prostate
[17] = tested on: HOP-92 NSCLC
[18] = tested on: K-562 leukemia
[19] = tested on: U251 CNS
[20] = tested on: SNB-19 CNS
[21] = tested on: 786-0 renal
[22] = tested on: HOP-62 NSCLC
[23] = tested on: HT29 colon
[24] = tested on: SR leukemia
[25] = tested on: SK-MEL-28 melanoma
[26] = tested on: RPMI-8226 leukemia
[27] = tested on: OVCAR-5 ovarian
[28] = tested on: MALME-3M melanoma
[29] = tested on: OVCAR-8 ovarian
[30] = tested on: MCF7 breast
[31] = tested on: NCI-H460 lung
[32] = tested on: HCT-116 colon
[33] = tested on: NCI-H522 lung
[34] = tested on: UACC-257 melanoma
[35] = tested on: SF-295 CNS
[36] = tested on: SN12C renal
[37] = tested on: IGROV1 ovarian
[38] = tested on: COLO 205 colon
[39] = tested on: HCT-15 colon
[40] = tested on: M14 melanoma
[41] = tested on: KM12 colon
[42] = tested on: HCC-2998 colon
[43] = tested on: A549 NSCLC
[44] = tested on: MDA-MB-231 breast
[45] = tested on: NCI-H226 lung
[46] = tested on: UACC-62 melanoma
[47] = tested on: MDA-MB-468 breast
[48] = tested on: PC-3 prostate
[49] = tested on: OVCAR-4 ovarian
[50] = tested on: SF-268 CNS
[51] = tested on: OVCAR-3 ovarian
[52] = tested on: EKVX NSCLC

With `Cc1cc(=O)oc2cc(OCCCOc3ccc(/C=C/C(=O)Nc4ccccc4N)cc3)ccc12` the GI50 [1] was 0.716 µM, the TGI [1] was 2.06 µM and the GI50 [2] was 3.78 µM. The TGI [2] was over 100 µM, the GI50 [3] was 0.749 µM and the TGI [3] was over 100 µM. It also gave a GI50 [4] of 4.16 µM, a TGI [4] of over 100 µM and a GI50 [5] of 0.923 µM. It also gave a TGI [5] of 3.27 µM, a GI50 [6] of 3.38 µM and a TGI [6] of over 100 µM. It also gave a GI50 [7] of 4.42 µM, a TGI [7] of over 100 µM and a GI50 [8] of 2.22 µM. For the same compound, the TGI [8] was over 100 µM, the GI50 [9] was 3.64 µM and the TGI [9] was over 100 µM. The GI50 [10] was 3.6 µM, the TGI [10] was over 100 µM and the GI50 [11] was 5.29 µM. The TGI [11] was over 100 µM, the GI50 [12] was 4.5 µM and the TGI [12] was over 100 µM. For the same compound, the GI50 [13] was 0.775 µM, the TGI [13] was over 100 µM and the GI50 [14] was 2.34 µM. It also gave a TGI [14] of 6.7 µM, a GI50 [15] of 0.31 µM and a TGI [15] of 1.91 µM. The GI50 [16] was 4.71 µM, the TGI [16] was over 100 µM and the GI50 [17] was 3.91 µM. For the same compound, the TGI [17] was over 100 µM, the GI50 [18] was 0.817 µM and the TGI [18] was over 100 µM. It also gave a GI50 [19] of 5.49 µM, a TGI [19] of over 100 µM and a GI50 [20] of 3.72 µM. For the same compound, the TGI [20] was over 100 µM, the GI50 [21] was 3.13 µM and the TGI [21] was over 100 µM. For the same compound, the GI50 [22] was 4.93 µM, the TGI [22] was over 100 µM and the GI50 [23] was 4.8 µM. The TGI [23] was over 100 µM, the GI50 [24] was 1.81 µM and the TGI [24] was over 100 µM. For the same compound, the GI50 [25] was 3.6 µM, the TGI [25] was over 100 µM and the GI50 [26] was 0.276 µM. For the same compound, the TGI [26] was 2.35 µM, the GI50 [27] was 4.34 µM and the TGI [27] was over 100 µM. For the same compound, the GI50 [28] was 3.27 µM, the TGI [28] was over 100 µM and the GI50 [29] was 4.18 µM. It also gave a TGI [29] of over 100 µM, a GI50 [30] of 0.702 µM and a TGI [30] of over 100 µM. It also gave a GI50 [31] of 1.79 µM, a TGI [31] of over 100 µM and a GI50 [32] of 2.24 µM. For the same compound, the TGI [32] was over 100 µM, the GI50 [33] was 2.79 µM and the TGI [33] was over 100 µM. It also gave a GI50 [34] of 3.24 µM, a TGI [34] of over 100 µM and a GI50 [35] of 3.42 µM. It also gave a TGI [35] of over 100 µM, a GI50 [36] of 2.22 µM and a TGI [36] of over 100 µM. It also gave a GI50 [37] of 1.28 µM, a TGI [37] of over 100 µM and a GI50 [38] of 2.14 µM. The TGI [38] was 5.81 µM, the GI50 [39] was 2.4 µM and the TGI [39] was over 100 µM. For the same compound, the GI50 [40] was 3.16 µM, the TGI [40] was over 100 µM and the GI50 [41] was 3.9 µM. It also gave a TGI [41] of over 100 µM, a GI50 [42] of 3.17 µM and a TGI [42] of over 100 µM. For the same compound, the GI50 [43] was 3.31 µM, the TGI [43] was over 100 µM and the GI50 [44] was 3.33 µM. For the same compound, the TGI [44] was over 100 µM, the GI50 [45] was 2.45 µM and the TGI [45] was over 100 µM. It also gave a GI50 [46] of 2.79 µM, a TGI [46] of over 100 µM and a GI50 [47] of 1.94 µM. The TGI [47] was 8.14 µM, the GI50 [48] was 3.07 µM and the TGI [48] was over 100 µM. The GI50 [49] was 2.82 µM, the TGI [49] was over 100 µM and the GI50 [50] was 1.95 µM. For the same compound, the TGI [50] was over 100 µM, the GI50 [51] was 2.51 µM and the TGI [51] was over 100 µM. For the same compound, the GI50 [52] was 3.5 µM and the TGI [52] was over 100 µM.
